Laboratory results as given in ChEMBL document CHEMBL1201862, “PubChem BioAssay data set” (2004).
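Protocol summary: plate cells (96-well), add compound at 5 concentrations, incubate 48 h, interpolate endpoints linearly. The concentration for 50% growth inhibition is given as GI50.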 Active and inactive are the calls of the source. No stated cut-off is given here; in the data, active = GI50 up to about 1.1 µM and inactive = higher.

How the values were obtained:
Test in all cases: NCI tumour cell line growth inhibition, 48 h
A549 = tested on: A549
ACHN = tested on: ACHN
CAKI-1 = tested on: CAKI-1
CCRF-CEM = tested on: CCRF-CEM
DU-145 = tested on: DU-145
EKVX = tested on: EKVX
HCC 2998 = tested on: HCC 2998
HCT-15 = tested on: HCT-15
HL-60 = tested on: HL-60
K562 = tested on: K562
KM12 = tested on: KM12
NCI-H226 = tested on: NCI-H226
NCI-H522 = tested on: NCI-H522
NCI/ADR-RES = tested on: NCI/ADR-RES
PC-3 = tested on: PC-3
RXF 393 = tested on: RXF 393
SF-539 = tested on: SF-539
SNB-75 = tested on: SNB-75
TK-10 = tested on: TK-10
UO-31 = tested on: UO-31

| SMILES | GI50 (A549) | GI50 (ACHN) | GI50 (CAKI-1) | GI50 (CCRF-CEM) | GI50 (DU-145) | GI50 (EKVX) | GI50 (HCC 2998) | GI50 (HCT-15) | GI50 (HL-60) | GI50 (K562) | GI50 (KM12) | GI50 (NCI-H226) | GI50 (NCI-H522) | GI50 (NCI/ADR-RES) | GI50 (PC-3) | GI50 (RXF 393) | GI50 (SF-539) | GI50 (SNB-75) | GI50 (TK-10) | GI50 (UO-31) |
| --- | --- | --- | --- | --- | --- | --- | --- | --- | --- | --- | --- | --- | --- | --- | --- | --- | --- | --- | --- | --- |
| O=C1CCC2(CC1CC(Sc1ccccc1)Sc1ccccc1)OCCO2 (stereo not given) | 38.2 µM (inactive) | 38.6 µM (inactive) | 34.9 µM (inactive) | 31 µM (inactive) | 88.5 µM (inactive) | 61.8 µM (inactive) | 44.1 µM (inactive) | 37.1 µM | 19.8 µM (inactive) | 31.9 µM (inactive) | 27.4 µM (inactive) | 58.7 µM (inactive) | 23.3 µM (inactive) | 33.4 µM (inactive) | 25.2 µM (inactive) | 36.1 µM (inactive) | 43.1 µM (inactive) | 80.4 µM (inactive) | 62.7 µM (inactive) | 36.1 µM (inactive) |
| O=C(CSc1nc(O)nc2[nH]cnc12)Nc1ccccc1 | > 100 µM (inactive) | > 100 µM (inactive) | > 100 µM (inactive) | 33.7 µM (inactive) | > 100 µM (inactive) | > 100 µM (inactive) | > 100 µM (inactive) | 61.9 µM | > 100 µM (inactive) | 85.3 µM (inactive) | > 100 µM (inactive) | 37.1 µM (inactive) | 86.9 µM (inactive) | > 100 µM (inactive) | 36.6 µM (inactive) | > 100 µM (inactive) | 26.2 µM (inactive) | > 100 µM (inactive) | > 100 µM (inactive) | > 100 µM (inactive) |
| NP(=O)(OCC1=CC(=O)c2ccccc2C1=O)N(CCBr)CCBr (stereo not given) | 4.17 µM (inactive) | 1.44 µM (inactive) | 0.843 µM (active) | 1.2 µM (inactive) | 5.04 µM (inactive) | 15.3 µM (inactive) | 16 µM (inactive) | 5.13 µM | 0.863 µM (active) | 3.05 µM (inactive) | 8.65 µM (inactive) | 6.58 µM (inactive) | 2.31 µM (inactive) | 8.49 µM (inactive) | 10.9 µM (inactive) | 7.4 µM (inactive) | 3.99 µM (inactive) | 7.26 µM (inactive) | 17.2 µM (inactive) | 11.2 µM (inactive) |
| C=CCN1C[C@H](C)N([C@H](c2ccc(C(=O)NC(CC)CC)cc2)c2cccc(OC)c2)C[C@H]1C | 33.9 µM (inactive) | 33.9 µM (inactive) | 22.6 µM (inactive) | 41.4 µM (inactive) | 81.8 µM (inactive) | 79.4 µM (inactive) | 29.2 µM (inactive) | 29.4 µM | 10.9 µM (inactive) | 32.4 µM (inactive) | 37.7 µM (inactive) | 70.5 µM (inactive) | 13.4 µM (inactive) | 42.8 µM (inactive) | 31.1 µM (inactive) | 33.7 µM (inactive) | 20.4 µM (inactive) | > 100 µM (inactive) | 66.4 µM (inactive) | 21.2 µM (inactive) |
| c1cc(C[S+]2CCCC2)ccc1C[S+]1CCCC1 | 65.5 µM (inactive) | > 100 µM (inactive) | > 100 µM (inactive) | > 100 µM (inactive) | > 100 µM (inactive) | > 100 µM (inactive) | > 100 µM (inactive) | > 100 µM | > 100 µM (inactive) | > 100 µM (inactive) | > 100 µM (inactive) | > 100 µM (inactive) | > 100 µM (inactive) | > 100 µM (inactive) | > 100 µM (inactive) | > 100 µM (inactive) | > 100 µM (inactive) | 52.1 µM (inactive) | > 100 µM (inactive) | > 100 µM (inactive) |
| O=C(Nc1ccccc1)c1cc(S(=O)(=O)Nc2nc3cccnc3[nH]2)c(SSc2cc(Cl)c(C(=O)Nc3ccccc3)cc2S(=O)(=O)Nc2nc3cccnc3[nH]2)cc1Cl | > 100 µM (inactive) | > 100 µM (inactive) | > 100 µM (inactive) | > 100 µM (inactive) | > 100 µM (inactive) | > 100 µM (inactive) | > 100 µM (inactive) | > 100 µM | > 100 µM (inactive) | > 100 µM (inactive) | > 100 µM (inactive) | > 100 µM (inactive) | > 100 µM (inactive) | > 100 µM (inactive) | > 100 µM (inactive) | > 100 µM (inactive) | > 100 µM (inactive) | > 100 µM (inactive) | > 100 µM (inactive) | > 100 µM (inactive) |
| COc1cc2ccc(/C=C\[N+](=O)[O-])cc2cc1OC | 11.4 µM (inactive) | 1.81 µM (inactive) | 5.06 µM (inactive) | 1.44 µM (inactive) | 2.16 µM (inactive) | 4.3 µM (inactive) | 3.44 µM (inactive) | 3.21 µM | 1.97 µM (inactive) | 2.39 µM (inactive) | 6.85 µM (inactive) | 27.7 µM (inactive) | 1.13 µM (inactive) | 6.43 µM (inactive) | 2.58 µM (inactive) | 1.87 µM (inactive) | 1.97 µM (inactive) | 2.48 µM (inactive) | 3.08 µM (inactive) | 1.82 µM (inactive) |
| Cc1nc(=O)[nH]c2c1C(=O)N(C(C)C)C(NC(C)C)S2 (stereo not given) | > 100 µM (inactive) | > 100 µM (inactive) | 55.1 µM (inactive) | > 100 µM (inactive) | > 100 µM (inactive) | > 100 µM (inactive) | > 100 µM (inactive) | 93.8 µM | > 100 µM (inactive) | > 100 µM (inactive) | > 100 µM (inactive) | > 100 µM (inactive) | 47.2 µM (inactive) | > 100 µM (inactive) | 41.2 µM (inactive) | > 100 µM (inactive) | > 100 µM (inactive) | > 100 µM (inactive) | > 100 µM (inactive) | > 100 µM (inactive) |
| O=C1c2ccccc2-c2c1c1ccccc1c(=O)n2CCO | 5.27 µM (inactive) | 2.17 µM (inactive) | 3.53 µM (inactive) | 3.49 µM (inactive) | 13.5 µM (inactive) | 10 µM (inactive) | 24.8 µM (inactive) | 5.83 µM | 2.4 µM (inactive) | > 36 µM (inactive) | 6.38 µM (inactive) | 6.84 µM (inactive) | 24 µM (inactive) | 14.6 µM (inactive) | 21.5 µM (inactive) | 32.1 µM (inactive) | 10.6 µM (inactive) | 25.4 µM (inactive) | > 50.5 µM (inactive) | 4.06 µM (inactive) |
| COc1ccccc1NC1Oc2cc3c(cc2C(c2cc(OC)c(OC)c(OC)c2)C1C)OCO3 (stereo not given) | 4.53 µM (inactive) | 9.91 µM (inactive) | 2.22 µM (inactive) | 2.37 µM (inactive) | 4.75 µM (inactive) | > 26.1 µM (inactive) | 3.04 µM (inactive) | 3.06 µM | 0.612 µM (active) | 0.875 µM (active) | 1.43 µM (inactive) | 4.35 µM (inactive) | 1.45 µM (inactive) | 2.59 µM (inactive) | 1.12 µM (active) | 1.14 µM (inactive) | 1.7 µM (inactive) | 0.951 µM (active) | > 100 µM (inactive) | 3.58 µM (inactive) |
